In patent publication EP3352763B1 (priority 2015, dated 2017):

Tested on: A/Mississippi/3/2001/Variante, H1N1
Assay type: cell-based, Influenzaviren

## O=C(/C=C/c1ccc(O)cc1)OC[C@H]1O[C@@H](Oc2c(-c3ccc(O)cc3)oc3cc(O)cc(O)c3c2=O)[C@H](O)[C@@H](O)[C@@H]1O [Tilirosid, Kaempferol-3-(6"-trans-p-coumaroyl)glucosid]
  Selektivitätsindex (S.I.): 1.047
  antivirale Wirkung: antiviral wirkt
